This is an account of results in US4812447A, “Method for the treatment of nervous system degeneration” (City of Hope, priority 1986, dated 1989).

For one series, the system named is NF^+ neurons. Nature of the series: Example 3: fetal mouse brain cell culture, neurofilament (NF) immunofluorescence of neurons. As to conditions: for survival of neurons, outgrowth of neuritic processes, establishment of connections between neurons: low concentrations, explants of fetal mouse brain in culture; for optimal concentration for effects on neurons: numbers, processes, connections and staining of NF^+ neurons. The class given is cell-based, Swiss mouse. The procedure:
(§1) Cultures were prepared from finely chopped, mechanically dissociated brains from 14-day old Swiss mouse embryos. Cells were plated at a density of 3×10^5 cells/cm^2 on poly-D-lysine coated glass cover slips and maintained at 37° C. in an atmosphere of 5% CO2, 80% humidity in Dulbecco-modified ME medium supplemented with 10% fetal calf serum and containing penicillin. The medium was first changed at 5 days of culture, at which time DHEA and DHEAS was added in concentrations ranging from 10^-4 M to 10^-8 M to the experimental cultures, while the control cultures received only normal medium. The supplemented and control media were changed at 7 days and on the 9th day the cultures were fixed and immunostained by the indirect immunofluorescent method of Coons with rabbit antisera to neurofilament protein, specific for neurons, and to glial fibrillary acidic protein, which is specific for glial cells. Neuronal and glial cells identified by the above procedures subsequently will be designated as NF^+ and GFAP^+ cells.
(§2) Briefly, cultures were fixed by successive incubation at room temperature with 3.7% formaldehyde and 3.7% formaldehyde containing 0.2% Triton X-100, 10 min each, and incubation at 4° C. with acetone 50%, with acetone 100% and acetone 50%--2 min each. Incubation with the above-mentioned sera anti-cell markers appropriately diluted (1/20-1/30) was carried out at room temperature for 30 min.

The subject of series [1] is astrocytes (GFAP^+ cells). The series is described as follows: Example 3: fetal mouse brain cell culture, GFAP immunofluorescence of astrocytes / glial cells. The class given is cell-based, Swiss mouse. The following applies: for brilliance of astrocyte staining (GFAP per unit cell surface) / extent of astrocyte fiber extension / numbers of astrocytes: vs untreated cultures, GFAP staining; for development and maturation of glial processes: low concentrations, explants of fetal mouse brain in culture. The method, then:
as §1, §2

The test system of series [2] is mice. The following applies: cited from earlier work.
Series [3] deals with human complement system, C4 component. As to conditions: Koo, et al., Klin. Wochnschr, 61, 715 (1983); cited from earlier work.
The subject of series [4] is mice. The following applies: orally; cited from earlier work.
Another series deals with rats. The following applies: orally; cited from earlier work.
The conditions of series [5]: oral; cited from earlier work.
In a further series the test system is SDAT patients. The series is described as follows: Example 1: treatment of SDAT patients over 75 years old with DHEAS. The class given is in vivo, human. The following applies: 500 mg three times per day for two months. The method, then:
Four patients over 75 years old, suffering from SDAT and having well-documented, progressive SDAT symptoms, are selected. Two of the patients are given 500 mg of DHEAS three times per day for two months. The other two are given a placebo.

Molecules are shown by their SMILES. Where a name gives a salt, the structure may show the parent alone.

Take `C[C@]12CC[C@H](O)CC1=CC[C@@H]1[C@@H]2CC[C@]2(C)C(=O)CC[C@@H]12` [DHEA, dehydroepiandrosterone]: in the series with NF^+ neurons (10^-5 M-10^-8 M), the “connections between neurons and between neuronal clusters” value is listed as “Numerous connections appeared to be formed”; the neuronal clusters result is recorded as “greatly enlarged neuronal clusters”; the “processes of NF^+ neurons” value was “greatly extended, thickened, and intertwined”. The “numbers of NF^+ neurons” value with NF^+ neurons (10^-5 M-10^-8 M, by comparison with controls, fixed on 9th day) is “remarkable increases”. Moreover, the “brilliance of fluorescence of neurons and their processes (NF protein content)” value in the series with NF^+ neurons (10^-5 M-10^-8 M, in contrast to dull signal in controls) was “in marked contrast to the rather dull fluorescent signal observed in the controls”. The “size of NF^+ neurons” value with NF^+ neurons (experimental cultures vs controls) is recorded as “larger than those seen in the controls”. In the series on NF^+ neurons, the “survival of neurons, outgrowth of neuritic processes, establishment of connections between neurons” value is “remarkable effects in enhancing the survival of neurons” and the “optimal concentration for effects on neurons” value was 10^-7 M. Moreover, in series [1], the “brilliance of astrocyte staining (GFAP per unit cell surface)” value is “remarkable increase”; the “extent of astrocyte fiber extension” value is given as “remarkable increase”; the numbers of astrocytes entry is on record as “remarkable increase”; the “development and maturation of glial processes” value is “enhanced greatly”. Also, in the series on mice [2], the “incidence of breast cancer” value is “reduce the incidence of breast cancer” and the obesity result was “reduce obesity”. The “apparent age after prolonged administration” value in the series with mice [2] (prolonged administration) is reported as “appear to be younger”. Further, the “effect on human complement system, in particular C4 component” value in series [3] is given as “known to effect the human complement system”. The LD50 result with mice [4] is recorded as “greater than 10,000 mg/kg”. Moreover, the LD50 entry with rats is listed as “greater than 10,000 mg/kg”. Further, the “absorption in the gut” value in series [5] is listed as “readily absorbed in the gut”.
Regarding `C[C@]12CC[C@H](OS(=O)(=O)O)CC1=CC[C@@H]1[C@@H]2CC[C@]2(C)C(=O)CC[C@@H]12` [DHEAS, dehydroepiandrosterone sulfate], in the series on SDAT patients (2 patients vs 2 placebo), the cognitive ability result is listed as “significant improvements”, the memory result was “significant improvements” and the speech entry is on record as “significant improvements”. Besides, the “signs of further SDAT-type deterioration” value in the series on SDAT patients (placebo patients show continuing deterioration) is “No signs of further SDAT-type deterioration”. Also, in the series with NF^+ neurons (10^-4 M to 10^-8 M added), the “effects on NF^+ neurons compared with those of DHEA” value is listed as “Effects similar to those above”. Besides, in the series on NF^+ neurons, the “survival of neurons, outgrowth of neuritic processes, establishment of connections between neurons” value is “remarkable effects in enhancing the survival of neurons” and the “optimal concentration for effects on neurons” value is reported as 10^-8 M. Besides, in series [1], the “brilliance of astrocyte staining (GFAP per unit cell surface)” value is recorded as “remarkable increase”; the “extent of astrocyte fiber extension” value was “remarkable increase”; the numbers of astrocytes result was “remarkable increase”; the “development and maturation of glial processes” value was “enhanced greatly”. Besides, in the series with mice [2], the “incidence of breast cancer” value is listed as “reduce the incidence of breast cancer” and the obesity result is on record as “reduce obesity”. Besides, in series [3], the “effect on human complement system, in particular C4 component” value was “known to effect the human complement system”. Also, the LD50 result in the series on mice [4] is given as “greater than 10,000 mg/kg”. Further, the LD50 result in the series on rats is listed as “greater than 10,000 mg/kg”. In series [5], the “absorption in the gut” value is “readily absorbed in the gut”.
